# Experimental data: the supplement of paper PMC8671470
# ± gives the standard deviation of the averaged measurements.
# System: HL-60
# Assay: cell viability (% survival relative to DMSO control); higher = less cytotoxic
# Details: 72 h
# In short: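 Area under the curve, where listed, was derived from four-parameter log-logistic fits with drc and PharmacoGx. These fits used CellTiter-Glo viability from HL-60 cells in RPMI 1640 with 10% FBS, normalised to DMSO wells and wells holding 10 μM proteasome inhibitor. The full library was rescreened on 384-well plates in duplicate at five tenfold concentrations, 1–10,000 nM, with DMSO or 100 nM of one of three metabolic inhibitors, for 72 h at 37 °C, 5% CO2.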
# [1] = 0.001 µM, co-treatment: AZD3965 100 nM
# [2] = 0.001 µM, co-treatment: DMSO vehicle
# [3] = 0.001 µM, co-treatment: GSK2194069 100 nM
# [4] = 0.001 µM, co-treatment: pictilisib 100 nM
# [5] = 0.01 µM, co-treatment: AZD3965 100 nM
# [6] = 0.01 µM, co-treatment: DMSO vehicle
# [7] = 0.01 µM, co-treatment: GSK2194069 100 nM
# [8] = 0.01 µM, co-treatment: pictilisib 100 nM
# [9] = 0.1 µM, co-treatment: AZD3965 100 nM
# [10] = 0.1 µM, co-treatment: DMSO vehicle
# [11] = 0.1 µM, co-treatment: GSK2194069 100 nM
# [12] = 0.1 µM, co-treatment: pictilisib 100 nM
# [13] = 1 µM, co-treatment: AZD3965 100 nM
# [14] = 1 µM, co-treatment: DMSO vehicle
# [15] = 1 µM, co-treatment: GSK2194069 100 nM
# [16] = 1 µM, co-treatment: pictilisib 100 nM
# [17] = 10 µM, co-treatment: AZD3965 100 nM
# [18] = 10 µM, co-treatment: DMSO vehicle
# [19] = 10 µM, co-treatment: GSK2194069 100 nM
# [20] = 10 µM, co-treatment: pictilisib 100 nM
smiles,measurement,setting,value
Clc1ccc2c(c1Cl)CNCC2,cell viability,[1],97.69 ± 0.2%
same,cell viability,[2],100 ± 2.3%
same,cell viability,[3],93.2 ± 0.5%
same,cell viability,[4],97.1 ± 7.5%
same,cell viability,[5],94 ± 7.1%
same,cell viability,[6],103.4 ± 0.11%
same,cell viability,[7],102.4 ± 0.12%
same,cell viability,[8],108 ± 11%
same,cell viability,[9],103 ± 2.1%
same,cell viability,[10],103 ± 3.9%
same,cell viability,[11],107 ± 9.4%
same,cell viability,[12],103 ± 8.7%
same,cell viability,[13],105 ± 4.7%
same,cell viability,[14],99.5 ± 2.9%
same,cell viability,[15],106.8 ± 0.64%
same,cell viability,[16],95.3 ± 7.3%
same,cell viability,[17],102 ± 1.6%
same,cell viability,[18],107 ± 6.2%
same,cell viability,[19],99.73 ± 0.7%
same,cell viability,[20],103.3 ± 0.41%
CC(C)Cc1sc(N)nc1-c1ccc(P(=O)(O)O)o1,cell viability,[1],105 ± 4.8%
same,cell viability,[2],101 ± 7.6%
same,cell viability,[3],108 ± 9.1%
same,cell viability,[4],97.8 ± 1.5%
same,cell viability,[5],99.1 ± 8.8%
same,cell viability,[6],100.4 ± 0.35%
same,cell viability,[7],96.7 ± 7.1%
same,cell viability,[8],89.8 ± 15%
same,cell viability,[9],99.2 ± 21%
same,cell viability,[10],105 ± 7.3%
same,cell viability,[11],103 ± 8.6%
same,cell viability,[12],109 ± 9.9%
same,cell viability,[13],102 ± 3.8%
same,cell viability,[14],104 ± 1.7%
same,cell viability,[15],105 ± 3%
same,cell viability,[16],98.8 ± 7.3%
same,cell viability,[17],101 ± 1.6%
same,cell viability,[18],99.2 ± 4.2%
same,cell viability,[19],100 ± 3.6%
same,cell viability,[20],105 ± 9.4%
Cl.OC[C@H]1NC[C@@H](O)[C@@H](O)[C@@H]1O [1-Deoxymannojirimycin hydrochloride],cell viability,[1],100 ± 3.4%
same,cell viability,[2],99 ± 15%
same,cell viability,[3],94.8 ± 6.3%
same,cell viability,[4],95 ± 18%
same,cell viability,[5],99.9 ± 6.2%
same,cell viability,[6],107 ± 2.2%
same,cell viability,[7],90.2 ± 12%
same,cell viability,[8],99.8 ± 5%
same,cell viability,[9],101 ± 1.6%
same,cell viability,[10],100 ± 1.1%
same,cell viability,[11],93.66 ± 0.51%
same,cell viability,[12],102 ± 2.5%
same,cell viability,[13],101.8 ± 0.31%
same,cell viability,[14],106 ± 1.2%
same,cell viability,[15],101 ± 9%
same,cell viability,[16],111.2 ± 1%
same,cell viability,[17],101 ± 5.8%
same,cell viability,[18],95.9 ± 2.1%
same,cell viability,[19],86.6 ± 3%
same,cell viability,[20],104 ± 6.5%
CN(C)c1nc(O)c2[nH]cnc2n1 [2-Dimethylamino-6-hydroxypurine],cell viability,[1],98.9 ± 2.2%
same,cell viability,[2],99.5 ± 1.3%
same,cell viability,[3],98.8 ± 1.3%
same,cell viability,[4],101 ± 8%
same,cell viability,[5],97.93 ± 0.42%
same,cell viability,[6],103 ± 8.9%
same,cell viability,[7],110 ± 20%
same,cell viability,[8],105 ± 3%
same,cell viability,[9],100 ± 2.5%
same,cell viability,[10],96.5 ± 1.1%
same,cell viability,[11],92.4 ± 1.2%
same,cell viability,[12],102.5 ± 0.56%
same,cell viability,[13],97.6 ± 3%
same,cell viability,[14],88.1 ± 12%
same,cell viability,[15],104 ± 12%
same,cell viability,[16],114 ± 16%
same,cell viability,[17],101.2 ± 0.26%
same,cell viability,[18],102 ± 4.7%
same,cell viability,[19],108 ± 16%
same,cell viability,[20],99 ± 9.8%
"O=C(O)c1cc2sccc2[nH]1 [4H-thieno[3,2-b]pyrrole-5-carboxylic acid]",cell viability,[1],96.3 ± 5.8%
same,cell viability,[2],101.92 ± 0.033%
same,cell viability,[3],99.1 ± 7.8%
same,cell viability,[4],109 ± 14%
same,cell viability,[5],101 ± 5.4%
same,cell viability,[6],101 ± 2.9%
same,cell viability,[7],100.5 ± 0.55%
same,cell viability,[8],94.5 ± 6.3%
same,cell viability,[9],94.6 ± 11%
same,cell viability,[10],103 ± 7.1%
same,cell viability,[11],101.3 ± 0.73%
same,cell viability,[12],97.3 ± 4.2%
same,cell viability,[13],76.4 ± 8.7%
same,cell viability,[14],97.47 ± 0.64%
same,cell viability,[15],90.2 ± 1.1%
same,cell viability,[16],84.3 ± 7.3%
same,cell viability,[17],104 ± 11%
same,cell viability,[18],104 ± 3.8%
same,cell viability,[19],100 ± 9.4%
same,cell viability,[20],99.3 ± 9.8%
[N-]=[N+]=CC(=O)CC[C@H](N)C(=O)O [6-Diazo-5-oxo-L-norleucine],cell viability,[1],97.4 ± 11%
same,cell viability,[2],98.1 ± 2.5%
same,cell viability,[3],96.8 ± 8.2%
same,cell viability,[4],86.7 ± 24%
same,cell viability,[5],97.3 ± 4.9%
same,cell viability,[6],100.1 ± 0.89%
same,cell viability,[7],101 ± 3.5%
same,cell viability,[8],102 ± 4.2%
same,cell viability,[9],111 ± 13%
same,cell viability,[10],103 ± 1.3%
same,cell viability,[11],105 ± 9.1%
same,cell viability,[12],102 ± 3.5%
same,cell viability,[13],100.44 ± 0.019%
same,cell viability,[14],101 ± 2.2%
same,cell viability,[15],103 ± 6.7%
same,cell viability,[16],105 ± 7.1%
same,cell viability,[17],100 ± 1.3%
same,cell viability,[18],101 ± 2.1%
same,cell viability,[19],101.3 ± 0.3%
same,cell viability,[20],87.8 ± 10%
Sc1ncnc2nc[nH]c12 [6-mercaptopurine],cell viability,[1],101.3 ± 0.71%
same,cell viability,[2],104 ± 1.1%
same,cell viability,[3],99.93 ± 0.86%
same,cell viability,[4],102 ± 1.8%
same,cell viability,[5],102.8 ± 0.97%
same,cell viability,[6],98.8 ± 7%
same,cell viability,[7],106 ± 2.9%
same,cell viability,[8],108 ± 6.8%
same,cell viability,[9],96.3 ± 2%
same,cell viability,[10],97.9 ± 2.4%
same,cell viability,[11],95.62 ± 0.77%
same,cell viability,[12],91.2 ± 1%
same,cell viability,[13],101.2 ± 0.68%
same,cell viability,[14],102 ± 4.9%
same,cell viability,[15],89.8 ± 13%
same,cell viability,[16],98.3 ± 10%
same,cell viability,[17],23.9 ± 2%
same,cell viability,[18],35.1 ± 1.3%
same,cell viability,[19],35.9 ± 3%
same,cell viability,[20],32.6 ± 0.66%
O=C(O)CC[C@H](NC(=O)c1ccc([N+](=O)[O-])cc1)C(=O)O [(S)-2-(4-Nitrobenzamido)pentanedioic acid],cell viability,[1],103.2 ± 0.55%
same,cell viability,[2],101.4 ± 0.26%
same,cell viability,[3],101 ± 4%
same,cell viability,[4],90.7 ± 1.9%
same,cell viability,[5],106 ± 5.3%
same,cell viability,[6],100 ± 2.4%
same,cell viability,[7],110 ± 1.1%
same,cell viability,[8],102 ± 1.9%
same,cell viability,[9],102 ± 1.6%
same,cell viability,[10],99 ± 1.6%
same,cell viability,[11],103 ± 4.5%
same,cell viability,[12],88.78 ± 0.71%
same,cell viability,[13],102 ± 2.1%
same,cell viability,[14],102 ± 2.3%
same,cell viability,[15],102 ± 3.7%
same,cell viability,[16],102 ± 10%
same,cell viability,[17],103 ± 7.4%
same,cell viability,[18],101 ± 1.4%
same,cell viability,[19],99.2 ± 2.3%
same,cell viability,[20],92.3 ± 24%
O=C1Nc2ccccc2/C1=C\NCCc1ccc(O)c(O)c1 [AC1NZZMF],cell viability,[1],95.6 ± 7.7%
same,cell viability,[2],103 ± 1.8%
same,cell viability,[3],99.4 ± 2.7%
same,cell viability,[4],102 ± 6.3%
same,cell viability,[5],90.2 ± 23%
same,cell viability,[6],100.1 ± 0.38%
same,cell viability,[7],98.5 ± 11%
same,cell viability,[8],110 ± 4.9%
same,cell viability,[9],102 ± 4%
same,cell viability,[10],102 ± 1.2%
same,cell viability,[11],100 ± 1.1%
same,cell viability,[12],97.2 ± 13%
same,cell viability,[13],105 ± 8.5%
same,cell viability,[14],102.2 ± 0.11%
same,cell viability,[15],99 ± 0.43%
same,cell viability,[16],103 ± 13%
same,cell viability,[17],87.9 ± 9.7%
same,cell viability,[18],100.97 ± 0.1%
same,cell viability,[19],95.4 ± 1.8%
same,cell viability,[20],74.1 ± 3.9%
Cc1ccc(S(=O)(=O)NC2c3ccccc3Oc3ccccc32)cc1 [AH-7614],cell viability,[1],100 ± 1.6%
same,cell viability,[2],100 ± 0.64%
same,cell viability,[3],104 ± 2.2%
same,cell viability,[4],104.2 ± 0.15%
same,cell viability,[5],99.6 ± 0.97%
same,cell viability,[6],100.5 ± 0.4%
same,cell viability,[7],101 ± 2.9%
same,cell viability,[8],90.6 ± 8.2%
same,cell viability,[9],102 ± 4.4%
same,cell viability,[10],100.4 ± 0.53%
same,cell viability,[11],96.8 ± 5.2%
same,cell viability,[12],96.6 ± 2.9%
same,cell viability,[13],97.3 ± 4.8%
same,cell viability,[14],102.5 ± 0.72%
same,cell viability,[15],95.1 ± 9.7%
same,cell viability,[16],92.2 ± 15%
same,cell viability,[17],95.8 ± 1.2%
same,cell viability,[18],96.04 ± 0.12%
same,cell viability,[19],97.2 ± 3.4%
same,cell viability,[20],96.4 ± 7%
